Experimental data as given in patent US6759413B2, “Use of cox-2 inhibitors as gastroprokinetics” (SmithKline Beecham Corporation, priority 2000, dated 2004).

What was measured:
Rats = assay: Rat model of post operative ileus (methylene blue meal transit); format: in vivo; settings: 3 mg/kg intravenous infusion; four hours post-gavage; eight rats; vehicle 49.3±1.3 cm; p<0.05
Method: Activity In Vivo: Rat Model of Post Operative Ileus
The selective COX-2 inhibitor 2-(4-ethoxy-phenyl)-3-(4-methanesulfonyl-phenyl)-pyrazolo[1,5-b]pyridazine was evaluated in a rat model of post-operative ileus. The methodology represents a modification of the procedure described by McGill et al, Gastroenterology 116: A1040 (1999).
Rats (fourteen) received 0.5 cc of skimmed milk with methylene blue by gavage. Either vehicle (six rats) or 2-(4-ethoxy-phenyl)-3-(4-methanesulfonyl-phenyl)-pyrazolo[1,5-b]pyridazine (eight rats) was then administered by intravenous infusion. Rats were sacrificed four hours post-gavage and the distance the methylene blue meal traversed the intestine measured. The pylorus was set at 0 cm. With vehicle treatment, the meal traversed 49.3±1.3 cm while with 2-(4-ethoxy-phenyl)-3-(4-methanesulfonyl-phenyl)-pyrazolo[1,5-b]pyridazine (3 mg/kg), the meal traversed 67.8±1.1 cm (p<0.05).

[1] = tested on: strips of canine fundic circular muscle; assay: Smooth muscle in vitro model: fundic circular muscle strips, relaxation/tension change; format: cell-based; settings: 10 μM; n=6-8 strips; FIG. 2
Beagle dogs = assay: Dog model of gastric emptying (solid phase, gamma camera); format: in vivo; settings: po for three days, measured on fourth day after am dosing; cisapride 0.14 mg/kg TID, celecoxib 2.8 mg/kg BID, 8-acetyl compound 1.2 mg/kg BID; FIG. 3
Method: Activity In Vivo: Dog Model of Gastric Emptying
Beagle dogs were treated for three days with test agents (po administration): placebo BID; cisapride 0.14 mg/kg TID; celecoxib 2.8 mg/kg BID; or 8-acetyl-3-(4-fluoro-phenyl)-2-(4-methanesulfonyl-phenyl)-imidazo[1,2-a]pyridine 1.2 mg/kg BID. Solid phase gastric emptying was measured on the fourth day following am dosing. The same three animals were used for evaluation of each agent, thus reducing any interanimal variations.
Isotope-labeled solid food was fed to the dogs for their morning meal and animals were then placed under a gamma camera and scans performed over the 24 to 36 hours.

dogs = assay: Dog model of lower esophageal sphincter pressure (LESP); format: in vivo; settings: 3 days treatment, day 4 am dose; cisapride 0.14 mg/kg TID, celecoxib 1.2 mg/kg BID; FIG. 4
Method: Activity In Vivo: Dog Model of Lower Esophageal Sphincter Pressure (LESP) Six adult dogs were instrumented with 14 French esophagostomy tubes. Animals were treated for 3 days with placebo (BID), cisapride (0.14 mg/kg TID) or celecoxib (1.2 mg/kg BID). On day 4 dogs received their am dose of test agent and water perfused manometry catheters were inserted through the esophagostomy tubes. Lower esophageal sphincter pressures (LESPs) were then monitored.

[2] = tested on: strips of canine antrum circular muscles; assay: Smooth muscle in vitro model of gastric propulsion: antral circular muscle strips, acetylcholine-induced contraction; format: cell-based; settings: 10 μM test agent; ACh 1 μM; n=4-8 strips; organ bath, Krebs solution; FIG. 1
Method: Smooth Muscle in vitro Model of Gastric Propulsion
Agents which stimulate antral smooth muscle activity would be expected to enhance the rate of gastric emptying by propulsion of contents in the aboral direction. By contrast, fundic relaxation could lead to delayed emptying of the stomach as the upper stomach would serve as a reservoir for gastric contents.
The effects of test agents were evaluated on strips of canine antrum circular muscles (n=4-8 strips) suspended in organ baths bathed with Krebs solution. Following establishment of baseline tension, acetylcholine (“ACh”; 1 μM), indomethacin (10 μM), or 8-acetyl-3-(4-fluoro-phenyl)-2-(4-methanesulfonyl-phenyl)-imidazo[1,2-a]pyridine (“8-Acetyl- . . . ”; 10 μM) were applied and tension changes monitored and recorded on a polygraph.

| SMILES | distance the methylene blue meal traversed the intestine (pylorus = 0 cm) (Rats) | relaxation / change in tension of fundic circular muscle [1] | rate of solid phase gastric emptying (Beagle dogs) | lower esophageal sphincter pressure (LESP) compared to placebo (dogs) | sensitisation of antral circular muscle to acetylcholine-induced contractions [2] |
| --- | --- | --- | --- | --- | --- |
| CCOc1ccc(-c2nn3ncccc3c2-c2ccc(S(C)(=O)=O)cc2)cc1 [2-(4-ethoxy-phenyl)-3-(4-methanesulfonyl-phenyl)-pyrazolo[1,5-b]pyridazine] | 67.8±1.1 cm |  |  |  |  |
| CC(=O)c1cccn2c(-c3ccc(F)cc3)c(-c3ccc(S(C)(=O)=O)cc3)nc12 [8-acetyl-3-(4-fluoro-phenyl)-2-(4-methanesulfonyl-phenyl)-imidazo[1,2-a]pyridine] |  | only small changes in tension | increased the rate of gastric emptying |  |  |
| COc1cc(N)c(Cl)cc1C(=O)NC1CCN(CCCOc2ccc(F)cc2)CC1OC (stereo not shown) [cisapride] |  |  | increased the rate of gastric emptying | increased LESP |  |
| COc1ccc2c(c1)c(CC(=O)O)c(C)n2C(=O)c1ccc(Cl)cc1 [indomethacin] |  | near complete relaxation |  |  | enhanced acetylcholine-induced contractions |
